Assay results reported in US20250100977A1, “MERCAPTOPYRIMIDINE COMPOUNDS THAT INHIBIT NONHOMOLOGOUS END JOINING AND METHODS THEREOF” (INDIAN INSTITUTE OF SCIENCE, priority 2021, published 2025).
Several values for one entry are separate records, joined by “and”; a condition that tells them apart may be missing. Identical values can stand only once. Like-named read-outs stand apart in the source and are kept apart here.

Tests used:
[1] = tested on: V(D)J recombination in Nalm6 (pGG51); assay: V(D)J recombination in Nalm6 using pGG51; assay type: cell-based; details: for Fold reduction in recombination efficiency: vs vehicle control
Protocol: Evaluation of efficiency of V(D)J recombination following treatment with SCR116 and SCR132 was carried out as depicted in FIGS. 6(A-C). Tables 4 and 5 summarize the effect of SCR116 (1 and 2 μM) and SCR132 (0.5 and 1 μM) on V(D)J recombination in Nalm6 using pGG49 and pGG51, respectively.

Reh = assay: Cytotoxicity in Reh; assay type: cell-based; details: 48 h
Protocol: (§1) The compounds of the present invention were screened initially in leukemic and cervical cancer cell lines (Table 1). […] In cervical cancer cell line HeLa, IC50 was 5 and 2 μM, respectively for SCR116 and SCR132 (FIG. 5A-B).
(§2) Ligase IV specificity of the compounds of the present invention inside the cells were also determined using Ligase IV knock out (KO) cell line N114 compared to the wild type Nalm6 (Table 2, FIGS. 5C, D, E and F). […] Table 1 showing IC50 of SCR7 derivatives in cancer cell lines Nalm6 and HeLa. IC50 was calculated using GraphPad Prism software from the percentage of viable cells following treatment with the compounds at 48 h. Table 2 showing IC50 of SCR116 and SCR132 in a panel of 16 cancer cell lines.

[2] = tested on: Erlich Ascites Carcinoma (EAC) tumor; assay: Mice allograft model, Erlich Ascites Carcinoma (EAC); assay type: in vivo; details: for Tumor progression: intraperitoneal; for Tumor progression / Tumor load: alternate days; for Tumor load: oral, 8 doses, pilot
Protocol: The compounds of the present disclosure were evaluated for the anti-cancer efficacy starting from lower concentrations using Mice allograft model. Mice allograft model was developed by injecting Erlich Ascites Carcinoma (EAC) cell lines in the thigh region of the mice followed by treatment with the compounds via intraperitoneal and oral routes on alternate days (FIG. 9C).
The effect of oral dose of the compounds of the present disclosure on mice Erlich Ascites Carcinoma (EAC) and Dalton's Lymphoma (DLA) tumors were also evaluated (FIGS. 10A-F).

SCC131 derived xenograft = assay: Mouse xenograft model, SCC131; assay type: in vivo; details: oral cancer SCC131 xenograft; 8 oral doses
Nalm6 = assay: Cytotoxicity (viable cells) in Nalm6; assay type: cell-based; details: Homo sapiens, NALM-6, read-out: IC50 in cancer cell lines, Nalm6
Protocol: as §1, §2

rat testicular extracts = assay: Inhibition of end joining of rat testicular extracts (NHEJ); assay type: biochemical; details: for Inhibition of end joining (in words): 200 μM; for Inhibition of end joining (no joined product observed): 500 μM, rat testicular extract; for End joining after Ligase IV added back to inhibited testicular extract: complementation with purified Ligase IV/XRCC4
Protocol: The compounds of the present invention were tested for their effects on inhibition of DNA end joining reactions using rat tissue extracts and purified DNA Ligase IV/XRCC4. Rat testicular extracts were prepared from testes of 4-6 week old male Wistar rats, Rattus norvegicus using ammonium sulphate precipitation method. To determine end joining of cell-free extracts, radiolabeled double-stranded (ds) oligomeric DNA substrate was incubated with rat testicular extract at 25° C. in suitable NHEJ buffer. Extracts were incubated for 30 min with the compounds of Formula I (01-41, 500 μM) as prepared in Example 1, and then radioactive DNA substrate was added to the reaction mixture and incubated for 1 h at 25° C. Reactions were stopped using EDTA, and products were purified using phenol: chloroform extraction and loaded on denaturing polyacrylamide gel. […] Joining efficiency was calculated using the intensity of product bands (150 bp or higher) in individual lanes in Multi Gauge software as compared to control (lanes 2,3). Lane 1 denotes radioactive substrate in absence of protein or inhibitor, while M denotes radiolabeled 50 bp DNA ladder.
Effects of these compounds on NHEJ and Ligase IV mediated joining were evaluated (FIG. 4A-K). The reactions were terminated by EDTA (10 mM), products were purified using phenol/chloroform, precipitated with chilled ethanol and glycogen, and resolved on 8% denaturing PAGE. The gel was dried, exposed, and signal was detected using phosphor Imager FLA9000 (Fuji, Japan), and quantified in MultiGauge software expressed as Photo Stimulated Luminescence Units (PSLU). Inhibition of end joining was reported at 200 μM and 100 μM, respectively for SCR116 and SCR132 (FIGS. 4A, B, C and D), with >50% inhibition at 200 and 100 μM concentrations, respectively. […] FIG. 4K depict the purification profile of Ligase IV and XRCC4. Further FIGS. 4L-M represent inhibition of end joining catalysed by (FIG. 4L) purified Ligase III/XRCCI in presence of SCR116 and SCR132 (50, 100, 200, 500, 1000 μM) and (FIG. 4M) by purified Ligase I in presence of increasing concentrations of SCR116 and SCR132 (10, 50, 100, 200, 500, 1000 μM).

53BP1 foci in N114 = 53BP1 foci in N114 cells; assay type: cell-based; details: 24 h, SCR116 2, 5 μM, SCR132 1, 2 μM
Protocol: FIG. 8(A-B) depicts accumulation of DSBs inside cells following treatment with the compounds. A. Representative images for HeLa cells subjected to neutral comet assay following treatment with SCR116 and SCR132 for 24 h. […] FIG. 8C, D are representative images for Nalm6 cells (C) and N114 cells (D) following treatment with SCR116 and SCR132 for 24 h. and FIG. 8E, F are scatter plot depicting quantification of percentage of 53BP1 foci treated with SCR116 (2, 5 μM) and SCR132 (1, 2 μM) in Nalm6 and N114.

HCT116 = assay: Cytotoxicity in HCT116; assay type: cell-based; details: Homo sapiens, HCT-116; Table 2; read-out: IC50 in cancer cell lines, HCT116
Protocol: as §2

Supt1 = assay: Cytotoxicity in Supt1; assay type: cell-based; details: Homo sapiens, SUP-T1; Table 2; read-out: IC50 in cancer cell lines, Supt1
Protocol: as §2

Molt3 = assay: Cytotoxicity in Molt3; assay type: cell-based; details: Homo sapiens, MOLT-3; Table 2; read-out: IC50 in cancer cell lines, Molt3
Protocol: as §2

[3] = mouse, in vivo, po
Protocol: The bioavailability of the compounds of the present disclosure were analysed in mice serum at different time points (0.5, 1, 2, 4, 6, 8, 10, 12, 24 and 48 h) by HPLC at 232 nm wavelength (FIGS. 10N-P).

EAC = assay: Cytotoxicity in EAC; assay type: cell-based, mice; details: Mus musculus; Table 2; read-out: IC50 in cancer cell lines, EAC
Protocol: as §2

HCT116 derived xenograft = assay: Mouse xenograft model, HCT116; assay type: in vivo
[4] = Homo sapiens, REH, Table 2, read-out: IC50 in cancer cell lines, Reh

## Nc1nc(S)nc(O)c1/N=C/c1ccc([N+](=O)[O-])s1 [Compound 16, (E)-6-amino-2-mercapto-5-(((5-nitrothiophen-2-yl)methylene)amino)pyrimidin-4-ol]
[1]; 1 μM
  Recombination efficiency (CA/A) ×100: 0.030
[1]; 1 μM, listed as SCR116
  Fold reduction in recombination efficiency: 9 fold and 9.0 fold
[1]; 2 μM
  Recombination efficiency (CA/A) ×100: 0.005
[1]; 2 μM, listed as SCR116
  Fold reduction in recombination efficiency: 54 fold and 54.0 fold
Reh
  Fold difference of IC50 in Reh to that of SCR7: > 100 fold
Reh; [4]
  IC50: 2300 nM
Reh; Table 2, listed as SCR116, read-out: IC50 in cancer cell lines, Reh
  IC50: 2340 nM
[2]; 10 mg/kg
  Tumor progression: inhibition of tumor progression
[2]; 10 and 30 mg/kg
  Tumor load: reduced tumor load
[2]; selected oral dose 10 mg/kg
  Tumor size: significant reduction in tumor size
SCC131 derived xenograft
  Tumor volume: significant reduction in tumor volume
Nalm6; Table 1, 48 h
  IC50: 3440 nM
Nalm6; Table 2
  IC50: 3440 nM
Rat testicular extracts
  Inhibition of end joining (in words): complete inhibition of end joining
  Inhibition of end joining (no joined product observed): showed inhibition of end joining
  End joining after Ligase IV added back to inhibited testicular extract: joining efficiency was restored
53BP1 foci in N114
  53BP1 foci: no significant increase in the number of 53BP1 foci
HCT116
  IC50: 5200 nM
Supt1
  IC50: 1320 nM
Molt3
  IC50: 3100 nM
[3]
  Course of serum level: continued to increase till 10 h
EAC
  IC50: 16500 nM
HCT116 derived xenograft
  Tumor volume: significant reduction in tumor volume

## Nc1nc(S)nc(O)c1/N=C/c1sc(Cl)nc1Cl [Compound 32, (E)-6-amino-5-(((2,4-dichlorothiazol-5-yl)methylene)amino)-2-mercaptopyrimidin-4-ol]
[1]; 0.5 μM
  Recombination efficiency (CA/A) ×100: 0.006
[1]; 0.5 μM, listed as SCR132
  Fold reduction in recombination efficiency: 50 fold and 50.0 fold
[1]; 1 μM
  Recombination efficiency (CA/A) ×100: 0.003
[1]; 1 μM, listed as SCR132
  Fold reduction in recombination efficiency: 106 fold and 106.6 fold
Reh
  Fold difference of IC50 in Reh to that of SCR7: > 250 fold
Reh; [4]
  IC50: 690 nM
Reh; Homo sapiens, REH, read-out: IC50 in Reh cells
  IC50: 690 nM
[2]; 5 mg/kg
  Tumor progression: inhibition of tumor progression
[2]; 5 and 15 mg/kg
  Tumor load: reduced tumor load
[2]; selected oral dose 15 mg/kg
  Tumor size: significant reduction in tumor size
SCC131 derived xenograft
  Tumor volume: significant reduction in tumor volume
Nalm6; Table 1, 48 h
  IC50: 1790 nM
Nalm6; Table 2
  IC50: 1790 nM
Rat testicular extracts
  Inhibition of end joining (in words): complete inhibition of end joining
  Inhibition of end joining (no joined product observed): showed inhibition of end joining
  End joining after Ligase IV added back to inhibited testicular extract: joining efficiency was restored
53BP1 foci in N114
  53BP1 foci: no significant increase in the number of 53BP1 foci
HCT116
  IC50: 2000 nM
Supt1
  IC50: 734 nM
Molt3
  IC50: 795 nM
[3]
  Course of serum level: became stabilized between 4 h and 6 h
EAC
  IC50: 14800 nM
HCT116 derived xenograft
  Tumor volume: significant reduction in tumor volume
